Assay results from patent US20230312587A1, “PTERIDINONE COMPOUNDS AND USES THEREOF” (Vertex Pharmaceutical Incorporated, priority 2018, published 2023).
Read-outs that look alike come from different tables or passages of the source.

System: β-catenin-TCF-mediated reporter transcription activity in Colo 205 cells
Experiment: Colo 205 reporter assay (TCF/LEF luciferase)
Assay type: cell-based
Conditions: Colo 205 TCF/LEF luciferase reporter, five hours after addition of compound, read-out: TCF reporter Colo205 IC50
Text: The compounds of the invention described herein were screened using the assay procedure for β-catenin-TCF-mediated reporter transcription activity described below.
Reporter cell lines were generated by stably transfecting cells of cancer cell lines (e.g., colon cancer) with a plasmid reporter construct (From SABiosciences, a QIAGEN company) that includes TCF/LEF promoter driving expression of the firefly luciferase gene. TCF/LEF reporter constructs were made in which TCF/LEF promoter, a promoter with optimal number of TCF/LEF binding sites designed by SABiosceinces, was linked upstream of the firefly luciferase gene. This construct could also include a puromycin resistance gene as a selectable marker. This construct could also be used to stably transfect Colo 205 cells, a colon cancer cell line having a mutated APC gene that causes a constitutively active β-catenin. A control cell line was generated using another plasmid construct containing the luciferase gene under the control of a CMV basal promoter which is not activated by p-catenin.
Colo 205 Cultured cells with a stably transfected reporter construct were plated at approximately 10,000 cells per well into 384 well multi-well plates for twenty four hours. The testing compounds were then added to the wells in 2-fold serial dilutions using a twenty micromolar top concentration. A series of control wells for each cell type received only compound solvent. Five hours after the addition of compound, reporter activity for luciferase was assayed, by addition of the SteadyGlo luminescence reagent (Promega). The reporter luminescence activity was measured using Pherastar plate reader (BMG Labtech). Readings were normalized to DMSO only treated cells, and normalized activities were then used in the IC50 calculations. The Colo 205 reporter assay data are summarized in Table 45: A<0.3 μM; 0.3 μM≤B<1.0 μM; 1.0 μM≤C<5.0 μM; D≥5.0 μM
Colo 205 reporter assay data has also been obtained for certain R-isomers of Formula (I) wherein R^4 is —H or -D, and wherein the carbon to which R^3 and R^4 are attached (C2 carbon of Formula (X)) has R stereochemistry; such epimeric compounds are represented using the suffix “B” attached to the Compound described herein having the S stereochemistry at the carbon to which R^3 and R^4 are attached: […]

SMILES	IC50 (Homo sapiens, COLO 205, 5 h) [nM]	IC50 [nM]
[2H]C([2H])([2H])c1nc(NCc2cnn(Cc3ccc(C(F)(F)F)nc3)c2)nc2c1NC(=O)[C@H](C)N2C [Compound 494, (7S)-7,8-dimethyl-4-(methyl-d3)-2-(((1-((6-(trifluoromethyl)pyridin-3-yl)methyl)-1H-pyrazol-4-yl)methyl)amino)-7,8-dihydropteridin-6(5H)-one]	< 300	
Cc1nc(N[C@H]2C[C@H](N(C)c3cnc(C(F)(F)F)cn3)C2)nc2c1NC(=O)[C@H](C(C)C)N2C [Compound 655, (7S)-7-isopropyl-4,8-dimethyl-2-((trans-3-(methyl(5-(trifluoromethyl)pyrazin-2-yl)amino)cyclobutyl)amino)-7,8-dihydropteridin-6(5H)-one]	< 300	
Cc1nc(N[C@@H]2CCc3c2cnn3Cc2ccc(C(F)(F)F)nc2)nc2c1NC(=O)[C@H](C)N2C [Compound 625, (7S)-4,7,8-trimethyl-2-(((R)-1-((6-(trifluoromethyl)pyridin-3-yl)methyl)-1,4,5,6-tetrahydrocyclopenta[c]pyrazol-4-yl)amino)-7,8-dihydropteridin-6(5H)-one]	≥ 5000	
Cc1nc(N[C@H]2C[C@H](NC(=O)Cc3cc(F)c(F)c(F)c3)C2)nc2c1NC(=O)[C@H](C(C)C)N2C [Compound 515, N-(trans-3-(((S)-7-isopropyl-4,8-dimethyl-6-oxo-5,6,7,8-tetrahydropteridin-2-yl)amino)cyclobutyl)-2-(3,4,5-trifluorophenyl)acetamide]	< 300	
Cc1nc(NCc2cnn(C(C)c3ccc(F)cc3)c2)nc2c1NC(=O)[C@H](C)N2C (stereo partly drawn) [Compound 382, (7S)-2-(((1-(1-(4-fluorophenyl)ethyl)-1H-pyrazol-4-yl)methyl)amino)-4,7,8-trimethyl-7,8-dihydropteridin-6(5H)-one]	< 300	
COc1cc(O[C@H]2C[C@H](Nc3nc(C)c4c(n3)N(C)[C@@H](C)C(=O)N4)C2)ccc1F [Compound 370, (7S)-2-((trans-3-(4-fluoro-3-methoxyphenoxy)cyclobutyl)amino)-4,7,8-trimethyl-7,8-dihydropteridin-6(5H)-one]	< 300	
Cc1nc(NCc2cnn(Cc3ccnc(F)c3)c2)nc2c1NC(=O)[C@H](C)N2C [Compound 180, (7S)-2-(((1-((2-fluoropyridin-4-yl)methyl)-1H-pyrazol-4-yl)methyl)amino)-4,7,8-trimethyl-7,8-dihydropteridin-6(5H)-one]	< 300	
Cc1nc(N[C@H]2C[C@H](Oc3ccnc(C(F)(F)F)c3)C2)nc2c1N(C)C(=O)[C@H](C)N2C [Compound 337, (7S)-4,5,7,8-tetramethyl-2-((trans-3-((2-(trifluoromethyl)pyridin-4-yl)oxy)cyclobutyl)amino)-7,8-dihydropteridin-6(5H)-one]	300 to 1000	
CC[C@H]1C(=O)Nc2c(C)nc(N[C@H]3C[C@@H](COc4ccc(C(F)(F)F)nc4)C3)nc2N1C [Compound 646, (S)-7-ethyl-4,8-dimethyl-2-((cis-3-(((6-(trifluoromethyl)pyridin-3-yl)oxy)methyl)cyclobutyl)amino)-7,8-dihydropteridin-6(5H)-one]	< 300	
Cc1nc(N[C@H]2C[C@@H](Nc3ncc(C(F)(F)F)cn3)C2)nc2c1NC(=O)[C@H](C(C)C)N2C [Compound 734, (S)-7-isopropyl-4,8-dimethyl-2-((cis-3-((5-(trifluoromethyl)pyrimidin-2-yl)amino)cyclobutyl)amino)-7,8-dihydropteridin-6(5H)-one]	300 to 1000	
Cc1nc(NCc2cc(C)n(Cc3ccc(F)cc3)c2C)nc2c1NC(=O)[C@H](C(C)C)N2C [Compound 508, (S)-2-(((1-(4-fluorobenzyl)-2,5-dimethyl-1H-pyrrol-3-yl)methyl)amino)-7-isopropyl-4,8-dimethyl-7,8-dihydropteridin-6(5H)-one]	300 to 1000	
Cc1nc(NCc2cnn(Cc3cncc(C(F)(F)F)c3)c2)nc2c1NC(=O)[C@H](C)N2C [Compound 206, (7S)-4,7,8-trimethyl-2-(((1-((5-(trifluoromethyl)pyridin-3-yl)methyl)-1H-pyrazol-4-yl)methyl)amino)-7,8-dihydropteridin-6(5H)-one]	< 300	
Cc1nc(N[C@H]2C[C@@H](Cn3nc(Cl)c(C#N)n3)C2)nc2c1NC(=O)[C@H](C(C)C)N2C [Compound 695, 5-chloro-2-((cis-3-(((S)-7-isopropyl-4,8-dimethyl-6-oxo-5,6,7,8-tetrahydropteridin-2-yl)amino)cyclobutyl)methyl)-2H-1,2,3-triazole-4-carbonitrile]	< 300	
Cc1nc(NCc2cnn(Cc3ccc(C(F)(F)F)nc3)c2)nc2c1NC(=O)[C@H](COC(C)(C)C)N2C [Compound 590, (S)-7-(tert-butoxymethyl)-4,8-dimethyl-2-(((1-((6-(trifluoromethyl)pyridin-3-yl)methyl)-1H-pyrazol-4-yl)methyl)amino)-7,8-dihydropteridin-6(5H)-one]	300 to 1000	
Cc1nc(NCc2cnn(C3CCOCC3)c2)nc2c1NC(=O)[C@H](C)N2C [Compound 118, (7S)-4,7,8-trimethyl-2-(((1-(tetrahydro-2H-pyran-4-yl)-1H-pyrazol-4-yl)methyl)amino)-7,8-dihydropteridin-6(5H)-one]	≥ 5000	
Cc1nc(N[C@H]2C[C@H](Nc3ccc(C(F)(F)F)cn3)C2)nc2c1NC(=O)[C@H](C(C)C)N2C [Compound 533, (S)-7-isopropyl-4,8-dimethyl-2-((trans-3-((5-(trifluoromethyl)pyridin-2-yl)amino)cyclobutyl)amino)-7,8-dihydropteridin-6(5H)-one]	300 to 1000	
COCC1(C)C(=O)Nc2c(C)nc(NCc3cnn(Cc4cc(C(F)(F)F)nn4C)c3)nc2N1C (stereo not shown) [Compound 709, 7-(methoxymethyl)-4,7,8-trimethyl-2-(((1-((1-methyl-3-(trifluoromethyl)-1H-pyrazol-5-yl)methyl)-1H-pyrazol-4-yl)methyl)amino)-7,8-dihydropteridin-6(5H)-one]		300 to 1000
Cc1nc(NCc2cnn(Cc3ccc(C(F)(F)F)nc3)c2)nc2c1NC(=O)C1(CC1)N2C [Compound 239, 4′,8′-dimethyl-2′-(((1-((6-(trifluoromethyl)pyridin-3-yl)methyl)-1H-pyrazol-4-yl)methyl)amino)-5′,8′-dihydro-6′H-spiro[cyclopropane-1,7′-pteridin]-6′-one]	< 300	
Cc1nc(N[C@H]2C[C@@H](Sc3ccc(OC(F)(F)F)cc3)C2)nc2c1NC(=O)[C@H](C)N2C [Compound 336, (7S)-4,7,8-trimethyl-2-((cis-3-((4-(trifluoromethoxy)phenyl)thio)cyclobutyl)amino)-7,8-dihydropteridin-6(5H)-one]	300 to 1000	
Cc1nc(NC2CN(C(=O)Cn3ccc(C(F)(F)F)n3)C2)nc2c1NC(=O)[C@H](C(C)C)N2C [Compound 595, (S)-7-isopropyl-4,8-dimethyl-2-((1-(2-(3-(trifluoromethyl)-1H-pyrazol-1-yl)acetyl)azetidin-3-yl)amino)-7,8-dihydropteridin-6(5H)-one]	300 to 1000	
Cc1nc(N[C@H]2C[C@H](Oc3ccc(OCC(F)(F)F)nc3)C2)nc2c1N(C)C(=O)[C@H](C)N2C [Compound 346, (7S)-4,5,7,8-tetramethyl-2-((trans-3-((6-(2,2,2-trifluoroethoxy)pyridin-3-yl)oxy)cyclobutyl)amino)-7,8-dihydropteridin-6(5H)-one]	300 to 1000	
Cc1nc(NCc2ccc(OCc3ccc(F)cc3)nc2)nc2c1NC(=O)[C@H](C)N2C [Compound 57, (7S)-2-(((6-((4-fluorobenzyl)oxy)pyridin-3-yl)methyl)amino)-4,7,8-trimethyl-7,8-dihydropteridin-6(5H)-one]	< 300	
Cc1nc(NCc2ccc(OC3CCN(c4ccc(F)cc4)C3)nc2)nc2c1NC(=O)[C@H](C)N2C (stereo partly drawn) [Compound 169, (7S)-2-(((6-((1-(4-fluorophenyl)pyrrolidin-3-yl)oxy)pyridin-3-yl)methyl)amino)-4,7,8-trimethyl-7,8-dihydropteridin-6(5H)-one]	< 300	
Cc1nc(N[C@H]2C[C@H](NCc3cc(F)c(F)c(F)c3)C2)nc2c1NC(=O)[C@H](C(C)C)N2C [Compound 535, (S)-7-isopropyl-4,8-dimethyl-2-((trans-3-((3,4,5-trifluorobenzyl)amino)cyclobutyl)amino)-7,8-dihydropteridin-6(5H)-one]	< 300	
Cc1nc(N[C@H]2C[C@H](Oc3cncc(C(F)(F)F)c3)C2)nc2c1N(C)C(=O)[C@H](C)N2C [Compound 314, (7S)-4,5,7,8-tetramethyl-2-((trans-3-((5-(trifluoromethyl)pyridin-3-yl)oxy)cyclobutyl)amino)-7,8-dihydropteridin-6(5H)-one]	300 to 1000	
